We go through 16 compounds from PubChem BioAssay (NCI).

Holding throughout (assay): NCI-60 cell line screen, 48 h
Experiment [1] has as its system BT-549 breast.
In experiment [2] the test system is T-47D breast.
In experiment [3] the test system is HS 578T breast.
Experiment [4] deals with NCI/ADR-RES ovarian.

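Exposure lasted 48 hours, with cells grown in 96-well plates and compounds tested at five concentrations. Abbreviation: GI50, concentration required for 50% inhibition of growth. TGI: concentration producing complete growth inhibition.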

Consider `CCCCc1ccc2nc(NC(=O)OC)[nH]c2c1`, for which the GI50 is 0.0707 µM in experiment [1], 0.0392 µM in experiment [2], 0.0266 µM in experiment [3] and 0.0311 µM in experiment [4]. In addition, the TGI is 12.4 µM in experiment [1], above 100 µM in experiment [2], 0.649 µM in experiment [3] and 0.121 µM in experiment [4].

`COc1ccc(C(=O)/C=C/c2ccc(Cl)cc2)cc1S(N)(=O)=O`: the GI50 was 2.29 µM in experiment [1], 3.2 µM in experiment [2], 3.28 µM in experiment [3] and 3.64 µM in experiment [4]. The TGI in experiment [1] came to 7.33 µM; in experiment [2] it was 14.4 µM; in experiment [3], 18.4 µM; in experiment [4] it was 24 µM.

Regarding `Cc1nc2c(cnn2-c2ccnc3c(C(F)(F)F)cccc23)c(=O)o1`, the GI50 in experiment [1], in experiment [2], in experiment [3] and in experiment [4] was above 100 µM each time. The TGI in experiment [1], in experiment [2], in experiment [3] and in experiment [4] was above 100 µM throughout.

Consider `COc1ccc(CN2CCc3c(Cl)nc(N)nc3C2=O)c(OC)c1`, for which the GI50 was 16.8 µM in experiment [1], 11 µM in experiment [2], 19.2 µM in experiment [3] and 27.2 µM in experiment [4]. For the same compound, the TGI in experiment [1] was determined as 42.2 µM; in experiment [2] it was 39.8 µM; in experiment [3], 50.5 µM; in experiment [4] it was 87 µM.

Consider `CC(=O)O[C@@H]1C=CC(=O)C2(CC(=O)O[C@@H]2/C=C(\C)CCC=C(C)C)C1` (some centres not stated), for which the GI50 in experiment [1] was 1.15 µM; in experiment [2], 0.389 µM; in experiment [3], 2.54 µM; in experiment [4] it was 0.223 µM. Moreover, the TGI in experiment [1] is 3.54 µM; in experiment [2], 0.873 µM; in experiment [3] it was above 23.4 µM; in experiment [4] it was 0.827 µM.

Consider `CCN1CCC(C(=O)Nc2n[nH]c3nnc(-c4cccc(F)c4F)cc23)CC1`, for which the GI50 is 12.2 µM in experiment [1], 4.42 µM in experiment [2], 3.68 µM in experiment [3] and above 25 µM in experiment [4]. The TGI in experiment [1] is above 25 µM; in experiment [2], above 20.1 µM; in experiment [3], above 23.1 µM; in experiment [4], above 25 µM.

Consider `CCN(CC)CCn1c(=N)n(CC(O)c2ccc(Cl)c(Cl)c2)c2ccccc21` (configuration not stated), for which the GI50 in experiment [1] is 14.5 µM; in experiment [2], 4.68 µM; in experiment [3] it was 4.25 µM; in experiment [4] it was 17.7 µM. The TGI was found to be 28 µM in experiment [1], 19.3 µM in experiment [2], 21.2 µM in experiment [3] and 36.8 µM in experiment [4].

For the compound `O=C(CCCCCCc1nc2ccc(Br)cc2[nH]1)NO`, the GI50 in experiment [1] is 1.69 µM; in experiment [2], 0.23 µM; in experiment [3], 0.331 µM; in experiment [4], 0.216 µM. Further, the TGI is 32.3 µM in experiment [1], above 100 µM in experiment [2], 3.21 µM in experiment [3] and 1.87 µM in experiment [4].

Consider `Cc1ccc(CCC(=O)Nc2ncc(Cc3cc(Cl)ccc3Cl)s2)o1`, for which the GI50 in experiment [1] was 0.29 µM; in experiment [2] it was 1.22 µM; in experiment [3], 0.289 µM; in experiment [4], 0.159 µM. Moreover, the TGI in experiment [1] is 2.72 µM; in experiment [2] it was above 100 µM; in experiment [3], 7.2 µM; in experiment [4], 1.41 µM.

As to `O=C1CCC/C=C\C[C@H]2C=C(Cl)C(=O)/C2=C/C[C@H](CCCCC(F)(F)F)OC(=O)CCC/C=C\C[C@H]2C=C(Cl)C(=O)/C2=C/C[C@H](CCCCC(F)(F)F)O1`, the GI50 in experiment [1] is 0.183 µM; in experiment [2], 0.204 µM; in experiment [3], 0.267 µM; in experiment [4], 1.57 µM. In addition, the TGI worked out at 0.502 µM in experiment [1], 1.16 µM in experiment [2], 7.5 µM in experiment [3] and 7.14 µM in experiment [4].

On to `O=C(Cn1ccnc1[N+](=O)[O-])NCCO`, for which the TGI in experiment [1], in experiment [2], in experiment [3] and in experiment [4] was above 100 µM each time.

Turning to `Cc1cc(Cl)n2c(nc3ccccc32)c1C#N`, the GI50 was 0.473 µM in experiment [1], 0.718 µM in experiment [2], 1.02 µM in experiment [3] and 0.847 µM in experiment [4]. For the same compound, the TGI worked out at 2.28 µM in experiment [1], 2.3 µM in experiment [2], 23.4 µM in experiment [3] and 8.74 µM in experiment [4].

Take `Cc1cc2c(-c3nc4ccccc4[nH]3)c(O)c(O)cc2c(O)c1-c1c(C)cc2c(-c3nc4ccccc4[nH]3)c(O)c(O)cc2c1O`: the values for the GI50 in experiment [1], in experiment [2] and in experiment [3] were 0.0235 µM, 0.0168 µM and 0.0629 µM, respectively. The figures for the TGI in experiment [1], in experiment [2] and in experiment [3] were 1.13 µM, 0.741 µM and above 50 µM, respectively.

Regarding `COc1ccc(C(=O)c2cc3c(N)c(C(=O)Nc4cccc(Cl)c4)sc3nc2C)cc1`, the GI50 is 7.69 µM in experiment [1], 2.52 µM in experiment [2], 0.957 µM in experiment [3] and 1.49 µM in experiment [4]. The TGI in experiment [1] was above 33.3 µM; in experiment [2], above 33.3 µM; in experiment [3] it was 6.62 µM; in experiment [4] it was above 33.3 µM.

Consider `CC(C)Oc1cc(OCC(=O)O)cc(C(=O)N(CCC(N)=O)C(=O)Nc2ccc(C(=O)O)cc2OC(C)C)c1`, for which the GI50 in experiment [1], in experiment [2], in experiment [3] and in experiment [4] was above 100 µM in each case. The TGI in experiment [1], in experiment [2], in experiment [3] and in experiment [4] was above 100 µM throughout.

For `O=c1ccc2nc(-c3ccccc3)nn(-c3ccccc3)c-2c1`, the GI50 in experiment [1] was 2.19 µM; in experiment [2], 0.485 µM; in experiment [3], 2.65 µM; in experiment [4], 8.11 µM. Further, the TGI in experiment [1] is 4.43 µM; in experiment [2] it was 1.26 µM; in experiment [3], 8.47 µM; in experiment [4] it was 48.4 µM.
